# Reference: US20200069664A1, “METHODS FOR TREATING INFECTION” (Salix Pharmaceuticals, Ltd, priority 2010, published 2020)
# “Also recorded” adds a separate entry of the source. Where two headings read alike, the source gives them in different places.
# Assays:
# ETEC strains = experiment: Isolate viability after rifaximin exposure, ETEC; format: cell-based, E coli
# ETEC isolates = format: cell-based, E coli
# S sonnei isolate = experiment: MMP-9 detection by gelatin zymography in S sonnei isolate after rifaximin exposure; format: cell-based
# Description: Expression of matrix metalloproteinase-9 (MMP-9) was analyzed using gelatin zymography in all viable EAEC and S. sonnei isolates growing on MacConkey agar. Isolates were suspended in 1 mL of 0.1 M phosphate buffered saline (pH 7.2) and centrifuged at 1000 g for 10 minutes at 4° C. The supernatant was subjected to gelatin zymography to detect MMP-9 activity using a modified Heussen and Dowdle protocol (9). In summary, the supernatant was diluted 1:2 in a sample buffer (125 mM Tris-HCl, pH 6.8, 20% glycerol, 4% sodium dodecyl sulfate, 0.02% bromphenol blue), and 20 μL was loaded on to a 10% SDS-PAGE gel containing 1 mg/mL gelatin. Prestained standard proteins were used as molecular weight markers. After electrophoresis, gels were rinsed with incubation buffer (2.5% triton X-100, 50 mM Tris-HCl, pH 7.4, 0.02% Brij 35, 10 mM CaCl2, 2 μM ZnCl2) for 1 hour at room temperature to remove SDS. Gels were then incubated overnight at 37° C. and subsequently stained with Coomassie brilliant blue R-250 (Thermo Fisher Scientific, Inc, Rockford, Ill.). […] Matrix metalloproteinase-9 was identified among all gelatinolytic proteins by size.
# C difficile isolates = settings: cited from earlier work
# HEp-2 cells = experiment: Cytokine array of supernatants of treated HEp-2 cells; settings: 64 μg/ml, 24 h; Panomics array of 36 cytokines
# [1] = rifaximin 8 mg/L, exposure 4 hrs
# [2] = rifaximin 8 mg/L, exposure 8 hrs
# [3] = rifaximin 8 mg/L, exposure 18 hrs
# [4] = rifaximin 8 mg/L, exposure 24 hrs
# [5] = rifaximin 32 mg/L, exposure 4 hrs
# [6] = rifaximin 32 mg/L, exposure 8 hrs
# [7] = rifaximin 32 mg/L, exposure 18 hrs
# [8] = rifaximin 64 mg/L, exposure 4 hrs
# [9] = rifaximin 64 mg/L, exposure 8 hrs
# [10] = 110 C difficile isolates, 1983 to 2004
substance,measurement,setting,value
"(2S,16Z,18E,20S,21S ,22R, 23R,24R,255,265,275,28E)-5,6,21,23,25 Pentahydroxy-27-methoxy-2,4,11,16,20,22,24,26-octamethyl-2,7-(epoxypentadeca-(1,11,13) trienimino) benzofuro (4,5-e) pyrido(1,2,-a) benzimidazole-1,15(2H)-dione,25-acetate [Rifaximin]",ETEC viability,ETEC strains; rifaximin 8 mg/L for 24 hours,viable
same,ETEC viability,ETEC strains; rifaximin 64 mg/L for 18 hours,No ETEC isolates were viable; also recorded: not viable
same,ETEC viability,"ETEC strains; rifaximin 8, 32, and 64 mg/L for 4 and 8 hours",viable
same,ETEC viability,ETEC strains; rifaximin 8 and 32 mg/L for 18 hours,viable
same,ETEC viability,ETEC strains; rifaximin 32 and 64 mg/L for 24 hours,No ETEC isolates were viable; also recorded: not viable
same,"Expression of virulence factors (ST, LT, CS2/CS3, CS6) by ETEC isolates","ETEC isolates; 4- and 8-hour exposure to rifaximin 8, 32, and 64 mg/L",expressed all examined virulence factors
same,"Expression of virulence factors (ST, LT, CS2/CS3, CS6) by ETEC isolates","ETEC isolates; 18 hours, rifaximin 8 mg/L",all virulence factors were expressed
same,"Expression of virulence factors (ST, LT, CS2/CS3, CS6) by ETEC isolates","ETEC isolates; 18 hours, rifaximin 32 mg/L",no factors were seen
same,"Expression of virulence factors (ST, LT, CS2/CS3, CS6) by ETEC isolates","ETEC isolates; 24 hours, rifaximin 8 mg/L",did not express any virulence factors
same,Expression of CS2/CS3 in ETEC isolates,ETEC isolates; [1],+
same,Expression of CS6 in ETEC isolates,ETEC isolates; [1],+
same,Expression of LT in ETEC isolates,ETEC isolates; [1],+
same,Expression of ST in ETEC isolates,ETEC isolates; [1],+
same,Expression of ST/LT in ETEC isolates,ETEC isolates; [1],+
same,Expression of CS2/CS3 in ETEC isolates,ETEC isolates; [2],+
same,Expression of CS6 in ETEC isolates,ETEC isolates; [2],+
same,Expression of LT in ETEC isolates,ETEC isolates; [2],+
same,Expression of ST in ETEC isolates,ETEC isolates; [2],+
same,Expression of ST/LT in ETEC isolates,ETEC isolates; [2],+
same,Expression of CS2/CS3 in ETEC isolates,ETEC isolates; [3],+
same,Expression of CS6 in ETEC isolates,ETEC isolates; [3],+
same,Expression of LT in ETEC isolates,ETEC isolates; [3],+
same,Expression of ST in ETEC isolates,ETEC isolates; [3],+
same,Expression of ST/LT in ETEC isolates,ETEC isolates; [3],+
same,Expression of CS2/CS3 in ETEC isolates,ETEC isolates; [4],−
same,Expression of CS6 in ETEC isolates,ETEC isolates; [4],−
same,Expression of LT in ETEC isolates,ETEC isolates; [4],−
same,Expression of ST in ETEC isolates,ETEC isolates; [4],−
same,Expression of ST/LT in ETEC isolates,ETEC isolates; [4],−
same,Expression of CS2/CS3 in ETEC isolates,ETEC isolates; [5],+
same,Expression of CS6 in ETEC isolates,ETEC isolates; [5],+
same,Expression of LT in ETEC isolates,ETEC isolates; [5],+
same,Expression of ST in ETEC isolates,ETEC isolates; [5],+
same,Expression of ST/LT in ETEC isolates,ETEC isolates; [5],+
same,Expression of CS2/CS3 in ETEC isolates,ETEC isolates; [6],+
same,Expression of CS6 in ETEC isolates,ETEC isolates; [6],+
same,Expression of LT in ETEC isolates,ETEC isolates; [6],+
same,Expression of ST in ETEC isolates,ETEC isolates; [6],+
same,Expression of ST/LT in ETEC isolates,ETEC isolates; [6],+
same,Expression of CS2/CS3 in ETEC isolates,ETEC isolates; [7],−
same,Expression of CS6 in ETEC isolates,ETEC isolates; [7],−
same,Expression of LT in ETEC isolates,ETEC isolates; [7],−
same,Expression of ST in ETEC isolates,ETEC isolates; [7],−
same,Expression of ST/LT in ETEC isolates,ETEC isolates; [7],−
same,Expression of CS2/CS3 in ETEC isolates,ETEC isolates; [8],+
same,Expression of CS6 in ETEC isolates,ETEC isolates; [8],+
same,Expression of LT in ETEC isolates,ETEC isolates; [8],+
same,Expression of ST in ETEC isolates,ETEC isolates; [8],+
same,Expression of ST/LT in ETEC isolates,ETEC isolates; [8],+
same,Expression of CS2/CS3 in ETEC isolates,ETEC isolates; [9],+
same,Expression of CS6 in ETEC isolates,ETEC isolates; [9],+
same,Expression of LT in ETEC isolates,ETEC isolates; [9],+
same,Expression of ST in ETEC isolates,ETEC isolates; [9],+
same,Expression of ST/LT in ETEC isolates,ETEC isolates; [9],+
same,MMP-9 in the S sonnei isolate,S sonnei isolate; other time points and rifaximin concentrations,either undetectable or the isolate was not viable
same,MMP-9 in the S sonnei isolate,S sonnei isolate; rifaximin 8 mg/L for 4 hours,detectable
same,"Isolates resistant to rifaximin, based on MIC values",C difficile isolates; 110 C difficile isolates from multiple locations,2.7%
same,MIC50,C difficile isolates; [10],0.0075 µg/mL
same,MIC90,C difficile isolates; [10],0.015 µg/mL
same,Cytokines detected in supernatants of treated HEp-2 cells,HEp-2 cells,detectable levels of RANTES and IL-4 only; also recorded: reduced the expression of various proinflammatory cytokines
